Test results: the kinase profiling compilation of Christmann-Franck et al. (2016)
One block for each compound: values may come before it.

How the values were obtained:
Assay in all cases: Caliper, Mobility shift assay off-chip
BTK (human) = BTK (human) (UniProt Q06187)
CHEK1 (human) = CHEK1 (human) (UniProt O14757)
RPS6KA4 KD1 KD2 (human) = RPS6KA4 KD1 KD2 (human) (UniProt O75676)
TNIK (human) = TNIK (human) (UniProt Q9UKE5)
WNK3 (human) = WNK3 (human) (UniProt Q9BYP7)
GSK3A (human) = GSK3A (human) (UniProt P49840)
CSNK1G3 (human) = CSNK1G3 (human) (UniProt Q9Y6M4)
MARK2 (human) = MARK2 (human) (UniProt Q7KZI7)
Chain of MARK2 (human) (Q7KZI7 whole entry, looked up): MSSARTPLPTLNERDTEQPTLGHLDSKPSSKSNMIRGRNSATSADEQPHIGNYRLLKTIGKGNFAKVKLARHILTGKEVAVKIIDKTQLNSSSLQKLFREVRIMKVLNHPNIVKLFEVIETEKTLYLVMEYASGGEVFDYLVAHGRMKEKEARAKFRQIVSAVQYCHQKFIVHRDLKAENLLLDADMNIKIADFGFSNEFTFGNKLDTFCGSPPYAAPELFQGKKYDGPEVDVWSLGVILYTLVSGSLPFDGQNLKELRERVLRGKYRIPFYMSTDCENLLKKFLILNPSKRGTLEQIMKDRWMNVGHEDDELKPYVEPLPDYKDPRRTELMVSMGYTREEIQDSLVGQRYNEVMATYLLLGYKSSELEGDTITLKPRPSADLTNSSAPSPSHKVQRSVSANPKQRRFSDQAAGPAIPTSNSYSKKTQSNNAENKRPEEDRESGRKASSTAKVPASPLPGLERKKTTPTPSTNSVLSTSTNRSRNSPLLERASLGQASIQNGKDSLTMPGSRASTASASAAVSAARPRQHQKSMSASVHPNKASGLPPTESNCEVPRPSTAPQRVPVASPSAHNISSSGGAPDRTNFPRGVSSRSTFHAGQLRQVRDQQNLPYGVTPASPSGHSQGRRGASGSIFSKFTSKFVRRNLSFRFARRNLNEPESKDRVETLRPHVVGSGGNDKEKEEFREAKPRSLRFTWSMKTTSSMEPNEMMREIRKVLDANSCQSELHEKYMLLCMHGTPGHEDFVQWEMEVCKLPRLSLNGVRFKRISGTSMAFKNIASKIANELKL

SIK2 (human) = SIK2 (human) (UniProt Q9H0K1)
Chain of SIK2 (human) (Q9H0K1 whole entry, looked up): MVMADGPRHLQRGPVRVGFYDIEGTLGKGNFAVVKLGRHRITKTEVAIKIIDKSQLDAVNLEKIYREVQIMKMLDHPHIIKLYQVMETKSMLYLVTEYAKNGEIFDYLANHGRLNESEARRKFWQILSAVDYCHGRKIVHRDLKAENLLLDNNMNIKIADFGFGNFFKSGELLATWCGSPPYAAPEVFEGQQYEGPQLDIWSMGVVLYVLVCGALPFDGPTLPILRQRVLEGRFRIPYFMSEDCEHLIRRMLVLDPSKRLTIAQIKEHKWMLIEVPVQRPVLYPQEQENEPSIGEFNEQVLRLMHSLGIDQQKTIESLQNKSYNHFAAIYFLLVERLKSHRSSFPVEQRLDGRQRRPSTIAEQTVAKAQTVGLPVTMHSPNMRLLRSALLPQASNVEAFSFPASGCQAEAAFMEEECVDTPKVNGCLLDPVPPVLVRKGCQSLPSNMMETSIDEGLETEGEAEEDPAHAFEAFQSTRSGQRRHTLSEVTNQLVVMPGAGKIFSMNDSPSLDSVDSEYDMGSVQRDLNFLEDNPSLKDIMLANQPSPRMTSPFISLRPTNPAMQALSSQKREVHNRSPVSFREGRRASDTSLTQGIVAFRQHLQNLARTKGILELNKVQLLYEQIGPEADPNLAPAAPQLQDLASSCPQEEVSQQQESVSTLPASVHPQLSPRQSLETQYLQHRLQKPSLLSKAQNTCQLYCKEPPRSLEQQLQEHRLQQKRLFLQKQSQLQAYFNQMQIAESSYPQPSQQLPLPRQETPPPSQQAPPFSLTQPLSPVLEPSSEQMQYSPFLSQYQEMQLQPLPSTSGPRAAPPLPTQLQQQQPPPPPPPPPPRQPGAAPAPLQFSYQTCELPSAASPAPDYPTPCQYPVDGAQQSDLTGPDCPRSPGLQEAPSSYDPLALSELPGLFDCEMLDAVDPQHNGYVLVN

PIM3 (human) = PIM3 (human) (UniProt Q86V86)
AURKC (human) = AURKC (human) (UniProt Q9UQB9)
Chain of AURKC (human) (Q9UQB9 whole entry, looked up): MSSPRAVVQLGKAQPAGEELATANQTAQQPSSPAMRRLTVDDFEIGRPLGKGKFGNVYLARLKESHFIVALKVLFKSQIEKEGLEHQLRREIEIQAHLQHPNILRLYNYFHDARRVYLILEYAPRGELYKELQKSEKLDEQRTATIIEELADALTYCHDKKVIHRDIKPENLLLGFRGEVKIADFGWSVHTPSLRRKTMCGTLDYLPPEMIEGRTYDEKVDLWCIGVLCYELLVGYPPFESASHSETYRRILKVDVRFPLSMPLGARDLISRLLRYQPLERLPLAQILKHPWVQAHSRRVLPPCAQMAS

SGK2 (human) = SGK2 (human) (UniProt Q9HBY8)
CSNK1G2 (human) = CSNK1G2 (human) (UniProt P78368)
NEK7 (human) = NEK7 (human) (UniProt Q8TDX7)
EPHB3 (human) = EPHB3 (human) (UniProt P54753)
CDK6 (human) = CDK6 (human) (UniProt Q00534)
PRKD1 (human) = PRKD1 (human) (UniProt Q15139)
MUSK (human) = MUSK (human) (UniProt O15146)
TXK (human) = TXK (human) (UniProt P42681)
STK38 (human) = STK38 (human) (UniProt Q15208)
Chain of STK38 (human) (Q15208 whole entry, looked up): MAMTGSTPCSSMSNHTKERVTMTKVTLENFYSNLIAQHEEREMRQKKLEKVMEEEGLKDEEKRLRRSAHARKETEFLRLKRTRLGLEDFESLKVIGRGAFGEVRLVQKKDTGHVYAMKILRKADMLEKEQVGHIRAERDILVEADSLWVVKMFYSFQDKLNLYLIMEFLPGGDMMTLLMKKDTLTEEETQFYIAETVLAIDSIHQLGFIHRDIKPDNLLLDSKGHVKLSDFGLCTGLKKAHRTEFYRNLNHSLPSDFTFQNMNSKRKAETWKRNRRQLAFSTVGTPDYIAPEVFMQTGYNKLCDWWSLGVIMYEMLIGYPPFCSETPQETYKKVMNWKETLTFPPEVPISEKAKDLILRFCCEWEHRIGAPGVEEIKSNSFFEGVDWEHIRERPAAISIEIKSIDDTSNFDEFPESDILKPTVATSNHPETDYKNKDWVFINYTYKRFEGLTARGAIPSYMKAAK

TBK1 (human) = TBK1 (human) (UniProt Q9UHD2)
STK3 (human) = STK3 (human) (UniProt Q13188)
HCK (human) = HCK (human) (UniProt P08631)
YES1 (human) = YES1 (human) (UniProt P07947)
PLK1 (human) = PLK1 (human) (UniProt P53350)
MELK (human) = MELK (human) (UniProt Q14680)
Chain of MELK (human) (Q14680 whole entry, looked up): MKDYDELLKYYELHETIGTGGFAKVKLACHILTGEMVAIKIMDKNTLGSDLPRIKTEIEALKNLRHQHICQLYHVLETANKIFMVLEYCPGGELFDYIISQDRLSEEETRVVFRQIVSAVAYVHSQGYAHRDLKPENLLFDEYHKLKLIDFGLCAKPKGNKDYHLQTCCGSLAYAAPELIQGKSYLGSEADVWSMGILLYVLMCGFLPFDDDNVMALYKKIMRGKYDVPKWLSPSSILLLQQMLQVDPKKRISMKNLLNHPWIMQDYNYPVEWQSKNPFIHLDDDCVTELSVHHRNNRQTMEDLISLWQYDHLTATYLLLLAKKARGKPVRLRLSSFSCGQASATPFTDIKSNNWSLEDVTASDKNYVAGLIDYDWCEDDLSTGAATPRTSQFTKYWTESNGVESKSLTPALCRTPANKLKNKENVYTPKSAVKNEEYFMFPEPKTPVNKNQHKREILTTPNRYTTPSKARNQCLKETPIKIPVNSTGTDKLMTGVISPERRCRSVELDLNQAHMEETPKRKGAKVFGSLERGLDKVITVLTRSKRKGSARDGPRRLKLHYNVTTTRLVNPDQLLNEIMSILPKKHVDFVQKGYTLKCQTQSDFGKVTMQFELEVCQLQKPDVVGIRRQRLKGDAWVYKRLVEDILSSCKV

MARK1 (human) = MARK1 (human) (UniProt Q9P0L2)
CLK1 (human) = CLK1 (human) (UniProt P49759)
MAPK9 (human) = MAPK9 (human) (UniProt P45984)
EPHA7 (human) = EPHA7 (human) (UniProt Q15375)
TNK1 (human) = TNK1 (human) (UniProt Q13470)
PIK3CA PIK3R1 (human) = PIK3CA PIK3R1 (human) (UniProt P27986+P42336)
KDR (human) = KDR (human) (UniProt P35968)
AURKB (human) = AURKB (human) (UniProt Q96GD4)

Chain of TNIK (human) (Q9UKE5 whole entry, looked up): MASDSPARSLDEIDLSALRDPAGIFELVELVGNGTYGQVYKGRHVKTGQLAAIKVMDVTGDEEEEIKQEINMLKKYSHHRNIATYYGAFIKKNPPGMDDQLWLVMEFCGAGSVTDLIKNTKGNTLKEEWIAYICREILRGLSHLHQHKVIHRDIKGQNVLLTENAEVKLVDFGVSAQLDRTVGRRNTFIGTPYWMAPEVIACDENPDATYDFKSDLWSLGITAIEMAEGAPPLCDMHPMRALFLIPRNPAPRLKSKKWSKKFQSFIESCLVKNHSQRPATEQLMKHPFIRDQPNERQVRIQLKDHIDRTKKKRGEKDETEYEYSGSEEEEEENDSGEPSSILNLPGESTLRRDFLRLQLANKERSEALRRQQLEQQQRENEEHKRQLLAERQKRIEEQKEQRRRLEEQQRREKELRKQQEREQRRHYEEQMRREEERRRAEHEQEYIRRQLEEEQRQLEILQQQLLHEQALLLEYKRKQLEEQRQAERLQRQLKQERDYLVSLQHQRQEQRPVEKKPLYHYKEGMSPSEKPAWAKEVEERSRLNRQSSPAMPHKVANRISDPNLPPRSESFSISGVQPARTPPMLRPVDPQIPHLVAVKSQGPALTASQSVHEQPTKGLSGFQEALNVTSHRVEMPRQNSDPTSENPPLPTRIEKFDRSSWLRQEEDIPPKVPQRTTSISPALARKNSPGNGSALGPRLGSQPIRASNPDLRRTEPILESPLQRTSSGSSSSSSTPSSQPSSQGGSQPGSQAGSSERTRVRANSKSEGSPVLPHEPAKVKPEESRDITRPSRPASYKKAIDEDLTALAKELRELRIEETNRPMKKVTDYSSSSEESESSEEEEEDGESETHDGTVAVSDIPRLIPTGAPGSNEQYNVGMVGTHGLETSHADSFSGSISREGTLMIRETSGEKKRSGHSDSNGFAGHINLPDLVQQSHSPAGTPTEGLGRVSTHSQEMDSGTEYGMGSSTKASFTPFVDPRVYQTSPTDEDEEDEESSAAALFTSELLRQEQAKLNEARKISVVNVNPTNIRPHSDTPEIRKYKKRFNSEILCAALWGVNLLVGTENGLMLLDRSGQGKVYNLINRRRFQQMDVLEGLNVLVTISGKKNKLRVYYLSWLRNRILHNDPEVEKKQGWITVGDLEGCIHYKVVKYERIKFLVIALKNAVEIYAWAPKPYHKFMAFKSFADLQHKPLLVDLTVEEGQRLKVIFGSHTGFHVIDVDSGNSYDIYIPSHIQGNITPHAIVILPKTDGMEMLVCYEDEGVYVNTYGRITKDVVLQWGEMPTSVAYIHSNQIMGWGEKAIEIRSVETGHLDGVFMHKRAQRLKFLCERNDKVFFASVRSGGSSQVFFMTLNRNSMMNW
Chain of CHEK1 (human) (O14757 whole entry, looked up): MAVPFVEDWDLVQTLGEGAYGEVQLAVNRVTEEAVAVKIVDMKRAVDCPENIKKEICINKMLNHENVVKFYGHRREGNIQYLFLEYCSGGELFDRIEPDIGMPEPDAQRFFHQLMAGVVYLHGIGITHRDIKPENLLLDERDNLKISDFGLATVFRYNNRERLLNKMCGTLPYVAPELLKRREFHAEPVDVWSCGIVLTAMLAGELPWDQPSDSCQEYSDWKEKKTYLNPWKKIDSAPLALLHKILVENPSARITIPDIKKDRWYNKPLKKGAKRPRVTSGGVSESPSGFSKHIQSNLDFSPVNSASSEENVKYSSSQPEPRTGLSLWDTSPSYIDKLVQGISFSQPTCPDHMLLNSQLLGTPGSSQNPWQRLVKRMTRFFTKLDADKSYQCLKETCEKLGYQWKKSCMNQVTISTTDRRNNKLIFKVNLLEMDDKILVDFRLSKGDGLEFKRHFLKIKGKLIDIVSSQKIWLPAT

- inhibition (BTK (human); compound 0.02 µM): -0.7%
- inhibition (BTK (human); compound 0.2 µM): 14.6%
- inhibition (CHEK1 (human); compound 0.02 µM): -2.7%
- inhibition (CHEK1 (human); compound 0.2 µM): 5.3%
- inhibition (RPS6KA4 KD1 KD2 (human); compound 0.02 µM): -1.1%
- inhibition (RPS6KA4 KD1 KD2 (human); compound 0.2 µM): 2.6%
- inhibition (TNIK (human); compound 0.02 µM): -6.2%
- inhibition (TNIK (human); compound 0.2 µM): 0.8%
- inhibition (WNK3 (human); compound 0.02 µM): -8%
- inhibition (WNK3 (human); compound 0.2 µM): 3.9%
- inhibition (GSK3A (human); compound 0.02 µM): -3.9%
- inhibition (GSK3A (human); compound 0.2 µM): 6.8%
- inhibition (CSNK1G3 (human); compound 0.02 µM): -1.4%
- inhibition (CSNK1G3 (human); compound 0.2 µM): -6.9%
- inhibition (MARK2 (human); compound 0.02 µM): -10.6%
- inhibition (MARK2 (human); compound 0.2 µM): -9.7%
- inhibition (SIK2 (human); compound 0.02 µM): -3.8%
- inhibition (SIK2 (human); compound 0.2 µM): 3%
- inhibition (PIM3 (human); compound 0.02 µM): -1.8%
- inhibition (PIM3 (human); compound 0.2 µM): -4.2%
- inhibition (AURKC (human); compound 0.02 µM): 0%
- inhibition (AURKC (human); compound 0.2 µM): 11.8%
- inhibition (SGK2 (human); compound 0.02 µM): -0.9%
- inhibition (SGK2 (human); compound 0.2 µM): 8.4%
- inhibition (CSNK1G2 (human); compound 0.02 µM): -18.7%
- inhibition (CSNK1G2 (human); compound 0.2 µM): -0.7%
- inhibition (NEK7 (human); compound 0.02 µM): -3.3%
- inhibition (NEK7 (human); compound 0.2 µM): -3.3%
- inhibition (EPHB3 (human); compound 0.02 µM): -2.4%
- inhibition (EPHB3 (human); compound 0.2 µM): 0.9%
- inhibition (CDK6 (human); compound 0.02 µM): 0.1%
- inhibition (CDK6 (human); compound 0.2 µM): 2%
- inhibition (PRKD1 (human); compound 0.02 µM): -1.1%
- inhibition (PRKD1 (human); compound 0.2 µM): 2.7%
- inhibition (MUSK (human); compound 0.02 µM): 24.4%
- inhibition (MUSK (human); compound 0.2 µM): 73.9%
- inhibition (TXK (human); compound 0.02 µM): -6.1%
- inhibition (TXK (human); compound 0.2 µM): 5.8%
- inhibition (STK38 (human); compound 0.02 µM): -2.5%
- inhibition (STK38 (human); compound 0.2 µM): 4.8%
- inhibition (TBK1 (human); compound 0.02 µM): -1.4%
- inhibition (TBK1 (human); compound 0.2 µM): -1.1%
- inhibition (STK3 (human); compound 0.02 µM): -3.3%
- inhibition (STK3 (human); compound 0.2 µM): -1.9%
- inhibition (HCK (human); compound 0.02 µM): -11.6%
- inhibition (HCK (human); compound 0.2 µM): 5.2%
- inhibition (YES1 (human); compound 0.02 µM): -1.9%
- inhibition (YES1 (human); compound 0.2 µM): 17.7%
- inhibition (PLK1 (human); compound 0.02 µM): -3.1%
- inhibition (PLK1 (human); compound 0.2 µM): -3.7%
- inhibition (MELK (human); compound 0.02 µM): -4.3%
- inhibition (MELK (human); compound 0.2 µM): -1.1%
- inhibition (MARK1 (human); compound 0.02 µM): -0.8%
- inhibition (MARK1 (human); compound 0.2 µM): 0.9%
- inhibition (CLK1 (human); compound 0.02 µM): -7%
- inhibition (CLK1 (human); compound 0.2 µM): 8.1%
- inhibition (MAPK9 (human); compound 0.02 µM): -7.7%
- inhibition (MAPK9 (human); compound 0.2 µM): 0.5%
- inhibition (EPHA7 (human); compound 0.02 µM): 2%
- inhibition (EPHA7 (human); compound 0.2 µM): 26.5%
- inhibition (TNK1 (human); compound 0.02 µM): -0.4%
- inhibition (TNK1 (human); compound 0.2 µM): 19%
Compound: CNC(=O)c1cc(Oc2ccc(NC(=O)Nc3ccc(Cl)c(C(F)(F)F)c3)cc2)ccn1

- inhibition (BTK (human); compound 0.02 µM): 2.4%
- inhibition (BTK (human); compound 0.2 µM): 3.1%
- inhibition (CHEK1 (human); compound 0.02 µM): 1.8%
- inhibition (CHEK1 (human); compound 0.2 µM): 0.3%
- inhibition (RPS6KA4 KD1 KD2 (human); compound 0.02 µM): -2.4%
- inhibition (RPS6KA4 KD1 KD2 (human); compound 0.2 µM): 3.7%
- inhibition (TNIK (human); compound 0.02 µM): 7.3%
- inhibition (TNIK (human); compound 0.2 µM): 46.6%
- inhibition (PIK3CA PIK3R1 (human); compound 0.02 µM): 64.2%
- inhibition (PIK3CA PIK3R1 (human); compound 0.2 µM): 68.1%
- inhibition (WNK3 (human); compound 0.02 µM): -0.8%
- inhibition (WNK3 (human); compound 0.2 µM): 3.2%
- inhibition (KDR (human); compound 0.02 µM): 81.6%
- inhibition (KDR (human); compound 0.2 µM): 99.2%
- inhibition (GSK3A (human); compound 0.02 µM): 1.8%
- inhibition (GSK3A (human); compound 0.2 µM): 5.1%
- inhibition (CSNK1G3 (human); compound 0.02 µM): 0.7%
- inhibition (CSNK1G3 (human); compound 0.2 µM): -0.3%
- inhibition (MARK2 (human); compound 0.02 µM): 9.3%
- inhibition (MARK2 (human); compound 0.2 µM): 12%
- inhibition (SIK2 (human); compound 0.02 µM): 1.3%
- inhibition (SIK2 (human); compound 0.2 µM): 5.7%
- inhibition (PIM3 (human); compound 0.02 µM): -3.4%
- inhibition (PIM3 (human); compound 0.2 µM): -4.2%
- inhibition (AURKC (human); compound 0.02 µM): -0.4%
- inhibition (AURKC (human); compound 0.2 µM): 21.5%
- inhibition (SGK2 (human); compound 0.02 µM): 5.5%
- inhibition (SGK2 (human); compound 0.2 µM): -0.1%
- inhibition (CSNK1G2 (human); compound 0.02 µM): 1.7%
- inhibition (CSNK1G2 (human); compound 0.2 µM): 0.3%
- inhibition (NEK7 (human); compound 0.02 µM): -2.9%
- inhibition (NEK7 (human); compound 0.2 µM): 0%
- inhibition (EPHB3 (human); compound 0.02 µM): -6.1%
- inhibition (EPHB3 (human); compound 0.2 µM): -4%
- inhibition (CDK6 (human); compound 0.02 µM): 6.2%
- inhibition (CDK6 (human); compound 0.2 µM): 8.2%
- inhibition (PRKD1 (human); compound 0.02 µM): -1.1%
- inhibition (PRKD1 (human); compound 0.2 µM): -0.8%
- inhibition (MUSK (human); compound 0.02 µM): -1.6%
- inhibition (MUSK (human); compound 0.2 µM): 0.7%
- inhibition (TXK (human); compound 0.02 µM): 3.3%
- inhibition (TXK (human); compound 0.2 µM): 27.4%
- inhibition (STK38 (human); compound 0.02 µM): 0.1%
- inhibition (STK38 (human); compound 0.2 µM): 7.5%
- inhibition (TBK1 (human); compound 0.02 µM): -0.2%
- inhibition (TBK1 (human); compound 0.2 µM): -1.1%
- inhibition (STK3 (human); compound 0.02 µM): -1.9%
- inhibition (STK3 (human); compound 0.2 µM): -4.2%
- inhibition (HCK (human); compound 0.02 µM): 2.6%
- inhibition (HCK (human); compound 0.2 µM): 25.1%
- inhibition (YES1 (human); compound 0.02 µM): 13.3%
- inhibition (YES1 (human); compound 0.2 µM): 44.3%
- inhibition (PLK1 (human); compound 0.02 µM): -0.7%
- inhibition (PLK1 (human); compound 0.2 µM): -2.2%
- inhibition (MELK (human); compound 0.02 µM): 8.1%
- inhibition (MELK (human); compound 0.2 µM): 12.4%
- inhibition (MARK1 (human); compound 0.02 µM): 4.6%
- inhibition (MARK1 (human); compound 0.2 µM): 3%
- inhibition (AURKB (human); compound 0.02 µM): 2.7%
- inhibition (AURKB (human); compound 0.2 µM): 12.5%
- inhibition (CLK1 (human); compound 0.02 µM): -4.3%
- inhibition (CLK1 (human); compound 0.2 µM): 6.6%
- inhibition (EPHA7 (human); compound 0.02 µM): 0.1%
- inhibition (EPHA7 (human); compound 0.2 µM): 1.7%
- inhibition (TNK1 (human); compound 0.02 µM): 1.8%
- inhibition (TNK1 (human); compound 0.2 µM): 12.2%
Compound: Cc1ccc(Nc2nccc(N(C)c3ccc4c(C)n(C)nc4c3)n2)cc1S(N)(=O)=O
